Laboratory results reported in the METLIN SMRT retention time set (Domingo-Almenara et al. 2019).

Test: gradient 5% acetonitrile 3 min, to 50% in 2 min, to 85% in 15 min, held 3 min, 100 µL/min
Settings: column: Zorbax Extend-C18 2.1 x 50 mm; eluents: water / acetonitrile, 0.1% formic acid
In short: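 Retention time was recorded from adduct peaks, which were picked computationally and each inspected manually. Pure standards ran in mixtures of ~100 molecules on HPLC coupled to a quadrupole time-of-flight mass spectrometer, in positive and negative ionization mode, through a Zorbax Extend-C18 column (2.1 × 50 mm, 1.8 μm) at 100 μL/min. Eluents were water and acetonitrile, each with 0.1% formic acid.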

| SMILES | RP-LC retention time |
| --- | --- |
| Cc1cccc(NC(=O)N2CCc3[nH]cnc3C2c2ccncc2)c1 (stereo not drawn) | 557 s |
| CCCN1CCCCc2cc(C(=O)N(C)CC(=O)NC)sc21 | 791 s |
| CCc1ccc(N2C(=O)C3N=NN(Cc4nc(-c5cccc(Br)c5)no4)C3C2=O)cc1 (stereo not drawn) | 1120 s |
| CCCC(C(=O)OCCN(CC)CC)(c1ccccc1)c1ccccc1 | 920 s |
| Cc1cccc(-c2noc(CSc3nccn3-c3ccccc3)n2)c1 | 969 s |
| COCCNC(=O)C(C)n1c(=O)c(C(F)(F)F)nc2cc(C)c(C)cc21 (stereo not drawn) | 986 s |
| CC[C@H]1[C@@H]2C[C@H]3[C@@H]4N(C)c5ccccc5[C@]45C[C@@H]([C@H]2[C@H]5O)N3[C@@H]1O | 652 s |
| COC(=O)c1cc(S(=O)(=O)N2CCCC2C(=O)Nc2ccc(Br)cc2F)cn1C (stereo not drawn) | 999 s |
| Cn1cc(C(CNC(=O)Nc2cccc(Cl)c2)c2cccnc2)c2ccccc21 (stereo not drawn) | 756 s |
| CC(=O)NCCc1csc(C2CCN(C(=O)C3CCCC3)CC2)n1 | 676 s |
| CCCNc1cc(N2CCC(CCC(=O)N3CCN(c4ncccn4)CC3)CC2)ncn1 | 632 s |
| CCn1ncc(N2CCCC(CC(=O)N3CCSCC3)C2)cc1=O (stereo not drawn) | 684 s |
| CCN1C(=O)c2cccnc2Sc2cc(NC(=O)Cc3ccccc3F)ccc21 | 826 s |
| COC(=O)c1ccc(NC(=O)c2cnc3c(c2)c(=O)n(C)c(=O)n3-c2ccccc2)cc1 | 879 s |
| COc1ccc(CNC(=O)NCCc2cn(C)c3ncccc23)cc1 | 649 s |
| CCOC(=O)C(=O)Nc1ccc(-c2nc(-c3ccc(C)cc3C)co2)cc1 | 1170 s |
| COc1ccc(OC)c(NC(=O)COc2cc(C(C)(C)C)nn2-c2nc(C)cc(C)n2)c1 | 881 s |
| O=C(Nc1cccc(C(F)(F)F)c1)c1cnc(-c2ccccc2)nc1-c1ccncc1 | 859 s |
| CCCCN(C)C(=O)Cn1c(=O)c2cnc(-c3ccc(Cl)cc3)nc2n(CC)c1=O | 1190 s |
| COc1ccccc1-c1nc(Cn2nnc(-c3nc(-c4ccc(SC)cc4)no3)c2C)c(C)o1 | 1180 s |

| SMILES | RP-LC retention time |
| --- | --- |
| COC(=O)C1=CN(c2cccc(OC)c2)c2cc(F)ccc2S1(=O)=O | 857 s |
| COc1ccc(-c2cc(N3CCN(C(=O)c4ccc5[nH]ccc5c4)CC3)n[nH]2)cc1 | 703 s |
| COc1ccc(C(=O)N[C@@H]2CCC[C@@H]2C(=O)N(C)C)cn1 | 595 s |
| CCN(CC)CCNS(=O)(=O)c1cc(-c2cc(C)[nH]n2)sc1C | 589 s |
| O=C(NCCc1noc(C2CC2)n1)c1ccco1 | 664 s |
| CC(C)(C)C(=O)N1CCN(c2ncccc2-c2nnc(C3CC3)o2)CC1 | 760 s |
| CCOc1ccc(-c2nc(-c3ccc4oc(C)nc4c3)no2)cc1OCC | 1170 s |
| Cn1cccc1C(=O)C(=O)NCc1ccc(Cl)cc1 | 906 s |
| O=C(NC1CCN(c2ccc(N3CCCCCC3)nn2)CC1)c1ccc(F)c(F)c1 | 682 s |
| Cc1ccccc1Cn1cc(-c2ccncc2)cc1C(=O)NC(C)c1ccccn1 (stereo not drawn) | 600 s |
| CCc1nc(-c2cccc(-c3noc(CN4C(=O)COc5ccc(Cl)cc54)n3)c2)cs1 | 1240 s |
| O=C(Nc1ccccc1NC(=O)c1ccccc1C(F)(F)F)c1cccs1 | 835 s |
| Cc1cccc(CNC2=NCCNC23CCN(S(=O)(=O)c2ccc(Cl)cc2)CC3)c1 | 762 s |
| Oc1c(C(Nc2ccccc2)c2ccccn2)ccc2cccnc12 (stereo not drawn) | 763 s |
| COc1cccc(-c2nc(-c3cccc(-c4ccnn4C)c3)no2)c1OC | 1020 s |
| COc1ccc(CN2C(=O)C3(CCOCC3)CC2c2nnnn2C(C)(C)C)c(OC)c1 (stereo not drawn) | 734 s |
| CC(C)n1nc(CNC(=O)c2ccc(F)c(F)c2)c2ccccc21 | 962 s |
| CCOC(=O)c1cc(S(=O)(=O)N2CCCC2C(=O)Nc2ccc(F)cc2)cn1C (stereo not drawn) | 920 s |
| O=C(c1cc(F)ccc1Cl)N1CCc2nc(-c3ccc(F)cc3)ncc2C1 | 1020 s |

Other lines, results leading:

| RP-LC retention time | SMILES |
| --- | --- |
| 810 s | CCCNC(=O)CCc1nc2ccccc2n(CC(=O)Nc2c(C)cccc2CC)c1=O |
| 902 s | CC1(C(=O)NCc2cccc(F)c2)CCCN(S(=O)(=O)c2ccccc2)C1 (stereo not drawn) |
| 1090 s | CCOC(=O)C1C(=O)C=C(c2ccco2)CC1c1ccccc1Cl (stereo not drawn) |
| 658 s | Cn1nc(C(=O)N2CCCC(C(=O)N3CCCC3)C2)c2c1CCN(C(=O)c1ccccc1F)C2 (stereo not drawn) |
| 885 s | CC1=C(c2ccc(C)cc2)S(=O)(=O)N=C1N1CCCN(C(=O)c2ccc(C)cc2)CC1 |
| 885 s | Cc1ccc(-c2nc3sc(N4CCCCC4)nn3c2NC(=O)C2CC2)cc1 |
| 632 s | Cn1nc(C(=O)NCc2cccs2)ccc1=O |
| 589 s | Cc1ccnc(NS(=O)(=O)c2ccc(NC(=O)c3cn(C)nc3C)cc2)n1 |
| 754 s | Cc1nc(CC(=O)NCCc2c[nH]c3ccc(Cl)cc23)cs1 |
| 900 s | CCC(=O)N1CCc2sc(C(=O)N3CCN(c4cccc(Cl)c4)CC3)cc2C1 |
| 999 s | Cc1ccc(CNC(=O)c2c(C)sc3ccn(CC(C)C)c(=O)c23)cc1 |
| 641 s | O=C(NC1CCN(Cc2ccccc2)CC1)C1CCCN(C(=O)N2CCOc3ccccc32)C1 (stereo not drawn) |
| 790 s | Cc1ccc(C)c(N2CCN(C(=O)Cn3c(=O)c4nncn4c4ncccc43)CC2)c1 |
| 862 s | CCCNC(=O)CN1C(=O)C2CCCCN2c2ccc(S(=O)(=O)N(CC)CC)cc21 (stereo not drawn) |
| 670 s | CCc1nc(C2CN(CCc3ccccc3)CC23CCCC3)no1 (stereo not drawn) |
| 745 s | O=C(CCCn1c(=O)c2cccn2c2ccc(F)cc21)N1CCN(C(=O)c2ccco2)CC1 |
| 1100 s | CCOC(=O)c1nc(Nc2ccccc2OCC)c2c(CC)noc2n1 |
| 589 s | C=CCNC(=O)CCc1c(-c2ccc(F)cc2)nc2ccccn12 |
| 627 s | O=C(NCc1ccc2c(c1)OCO2)C1CCN(c2cn[nH]c(=O)c2)C1 (stereo not drawn) |
| 808 s | CCOc1ccc(NC(=O)N2CCC[C@@H]2C(=O)NCc2csc(-c3ccccc3)n2)cc1 |
| 583 s | Cc1c(CN2CCSCC2)nnn1-c1ccccc1 |
| 922 s | CC(C)N1C(=O)c2cccnc2Sc2cc(NC(=O)CCc3ccccc3)ccc21 |
| 730 s | Cc1ccccc1S(=O)(=O)N1CCC2(CC1)NCCN=C2NCc1ccc(F)cc1 |
| 794 s | COc1ccccc1NC(=O)Cn1ncc2c(c1=O)N(CC1CC1)C(=O)CS2 |
| 870 s | O=C(Cn1nc(S(=O)(=O)c2ccccc2)ccc1=O)N1CCN(c2ccccc2F)CC1 |

| RP-LC retention time | SMILES |
| --- | --- |
| 802 s | O=C(NCc1ccc(F)cc1Cl)C1CCCN(c2ncnc3c2oc2ccccc23)C1 (stereo not drawn) |
| 573 s | COc1nn(C)cc1C(=O)NCc1n[nH]c(=O)c2ccccc12 |
| 754 s | O=C(C1=CN(c2ccccc2)c2cc(F)ccc2S1(=O)=O)N1CCOCC1 |
| 576 s | Cc1ccccc1C(=O)NCc1ccc2c(c1)ncn2C |
| 646 s | Cc1noc(CNC(=O)C2CCN(S(=O)(=O)c3cccs3)CC2)n1 |
| 708 s | N#Cc1cccc(-c2cn3c(n2)N(C(=O)c2ccccc2)CCC3)c1 |
| 626 s | CC1CCCCN1CCNC(=O)c1cc(=O)n2c(nc3ccccc32)s1 (stereo not drawn) |
| 816 s | O=C(NCCc1csc(-c2ccccc2)n1)C1CCN(C(=O)c2ccc(F)c(F)c2)CC1 |
| 676 s | CCNC(=O)c1[nH]c2ccc(F)cc2c1N1CCCC1=O |
| 723 s | Cc1nnc([C@@H]2CC(F)(F)CN2C(=O)Cc2c[nH]c3ccccc23)o1 |
| 843 s | COCCCNC(=O)NC1CCN(c2nc3cccnc3n(Cc3ccccc3)c2=O)CC1 |
| 966 s | Cc1nnc(-c2cc3ccccc3n2CC(=O)Nc2ccc(C(F)(F)F)cc2)o1 |
| 601 s | CCC(=O)N1CCN(c2nc3c(s2)CC(C(=O)NCc2cc(F)ccc2F)CC3)CC1 (stereo not drawn) |
| 1160 s | CCC1CCCCN1c1cc(C)nc2nc(-c3ccc(C)cc3)nn12 (stereo not drawn) |
| 1270 s | CC1CCCCN1S(=O)(=O)c1ccc(C(=O)Nc2nc3c(s2)CCc2ccccc2-3)cc1 (stereo not drawn) |
| 589 s | CC(=O)N(Cc1nn(C)c2c1CN(Cc1cn[nH]c1-c1cccs1)CC2)c1ccccc1 |
| 655 s | CCc1cc(C(=O)N2CCCC2)nc2cc(-c3cccs3)nn12 |
| 713 s | O=C(NCC1CCCO1)N1CC(c2nc(CCOCc3ccccc3)no2)C1 (stereo not drawn) |
| 610 s | Cc1nn(CC(=O)NCCN2CCOCC2)c(=O)c2nc(-c3ccccc3)sc12 |
| 680 s | CCCNC(=O)C1CCCN(c2nc3ncn(CC(=O)NCc4ccc(OC)cc4)c(=O)c3s2)C1 (stereo not drawn) |
| 857 s | O=C(CC1CCCCC1)N1CCN(c2ccc(=O)n(-c3ccccc3)n2)CC1 |
| 583 s | CCN1CCC2(CC1)OC(=O)C(C)=C2C(=O)NCCCN1CCC(Cc2ccccc2)CC1 |
| 1060 s | CS(=O)(=O)c1ccccc1C(=O)Nc1c2c(nn1-c1nc3ccccc3s1)CCC2 |
| 582 s | O=C(C1CCCN(c2nnc(N3CCCC3=O)s2)C1)N1CCN(c2ccccn2)CC1 (stereo not drawn) |
